SMILES strings stand for the structures. In brackets after ≈: the same amount, converted by molar mass. Read-outs that look alike come from different tables or passages of the source. Where only a bound is given, the exact number is not on record here.

What all share (assay type): physicochemical
The nature of data set [1]: Solubility measurement of Form I in solvent systems (HPLC). The following applies: organic solvent or mixture, thermodynamic from solid. How it is done: Form I waw found to be completely soluble (>50 mg/mL) in many solvents including DMF (50° C.), DCM, chloroform, DMSO, and DCM/MeOH (9/1) at 25° C. and 50° C.
A short description of data set [2]: Conversion of Form II to Form I in different solvents. The text has this:
The Form II was converted to Form I in acetonitrile, ethanol and IPA respectively as described in Table 13.

The nature of data set [3]: Solubility measurement of Form I in solvent systems (HPLC). Particulars: for solubility at 24 h: organic solvent or mixture, thermodynamic from solid, stirred 24 h, HPLC; for solubility (in words): 25° C.

With `CCN1C(=O)N(c2c(F)c(OC)cc(OC)c2F)Cc2cnc3[nH]c(CN4CCOCC4)cc3c21` [Form IX], the solubility at 24 h in data set [1] (25 °C, solvent MTBE, stirred 24 h, HPLC, read-out: Solubility at 25° C.) turned out to be 50 µg/mL (≈ 0.103 mM).
As for `CCN1C(=O)N(c2c(F)c(OC)cc(OC)c2F)Cc2cnc3[nH]c(CN4CCOCC4)cc3c21` [Form VIII], the solubility at 24 h in data set [1] (25 °C, solvent Acetone, stirred 24 h, HPLC, read-out: Solubility at 25° C.) amounted to 2680 µg/mL (≈ 5.5 mM).
On to `CCN1C(=O)N(c2c(F)c(OC)cc(OC)c2F)Cc2cnc3[nH]c(CN4CCOCC4)cc3c21` [Form VII], for which, in data set [1] (25 °C, solvent MIBK, stirred 24 h, HPLC, read-out: Solubility at 25° C.), the solubility at 24 h came out at 430 µg/mL (≈ 0.882 mM).
For the compound `CCN1C(=O)N(c2c(F)c(OC)cc(OC)c2F)Cc2cnc3[nH]c(CN4CCOCC4)cc3c21` [Form II], the “Conversion result (solid form)” value in data set [2] (18 mg Form II in EtOH (0.7 mL)), in data set [2] (18 mg Form II in IPA (0.7 mL)) and in data set [2] (18 mg Form II in MeCN (0.7 mL)) was “Form I” throughout. Further, the solubility at 24 h in data set [3] (25 °C, solvent Dichloromethane, read-out: Solubility at 25° C.) is above 50000 µg/mL.
`CCN1C(=O)N(c2c(F)c(OC)cc(OC)c2F)Cc2cnc3[nH]c(CN4CCOCC4)cc3c21` [Form I]: the solubility at 24 h is 1160 µg/mL (≈ 2.38 mM) in data set [1] (25 °C, solvent 1-Propanol, stirred 24 h, HPLC, read-out: Solubility at 25° C.); above 50000 µg/mL in data set [1] (25 °C, solvent DCM/MeOH (9/1), stirred 24 h, HPLC, read-out: Solubility at 25° C.); 880 µg/mL (≈ 1.81 mM) in data set [1] (25 °C, solvent IPAc, stirred 24 h, HPLC, read-out: Solubility at 25° C.); 450 µg/mL (≈ 0.923 mM) in data set [1] (25 °C, solvent Toluene, stirred 24 h, HPLC, read-out: Solubility at 25° C.); 2500 µg/mL (≈ 5.13 mM) in data set [1] (50 °C, solvent 1-Propanol, stirred 24 h, HPLC, read-out: Solubility at 50° C.); above 50000 µg/mL in data set [1] (50 °C, solvent Chloroform, stirred 24 h, HPLC, read-out: Solubility at 50° C.). Also, the solubility at 24 h in data set [1] (50 °C, solvent Dichloromethane, stirred 24 h, HPLC, read-out: Solubility at 50° C.) was above 50000 µg/mL; in data set [1] (50 °C, solvent EtOAc, stirred 24 h, HPLC, read-out: Solubility at 50° C.), 2260 µg/mL (≈ 4.64 mM); in data set [1] (50 °C, solvent MeCN, stirred 24 h, HPLC, read-out: Solubility at 50° C.) it was 8390 µg/mL (≈ 17.2 mM); in data set [1] (50 °C, solvent Methanol, stirred 24 h, HPLC, read-out: Solubility at 50° C.) it was 2050 µg/mL (≈ 4.21 mM); in data set [1] (DMF (50° C.), DCM, chloroform, DMSO, DCM/MeOH (9/1) at 25° C. and 50° C., read-out: completely soluble), above 50000 µg/mL; in data set [3] (25 °C, solvent 2-Methoxyethanol, read-out: Solubility at 25° C.), 15300 µg/mL (≈ 31.3 mM). For the same compound, the solubility at 24 h in data set [3] (25 °C, solvent Chloroform, read-out: Solubility at 25° C.) was above 50000 µg/mL; in data set [3] (25 °C, solvent DMF, read-out: Solubility at 25° C.) it was 42000 µg/mL (≈ 86.1 mM); in data set [3] (25 °C, solvent DMSO, read-out: Solubility at 25° C.) it was above 50000 µg/mL; in data set [3] (25 °C, solvent EtOH, read-out: Solubility at 25° C.), 970 µg/mL (≈ 1.99 mM); in data set [3] (25 °C, solvent IPA/water (4/1), read-out: Solubility at 25° C.), 5350 µg/mL (≈ 11 mM); in data set [3] (25 °C, solvent IPA, read-out: Solubility at 25° C.), 560 µg/mL (≈ 1.15 mM). For the same compound, the solubility at 24 h in data set [3] (25 °C, solvent Isobutyl acetate, read-out: Solubility at 25° C.) was found to be 460 µg/mL (≈ 0.944 mM); in data set [3] (25 °C, solvent MEK, read-out: Solubility at 25° C.) it was 1200 µg/mL (≈ 2.46 mM); in data set [3] (25 °C, solvent MeCN, read-out: Solubility at 25° C.), 5390 µg/mL (≈ 11.1 mM); in data set [3] (25 °C, solvent THF, read-out: Solubility at 25° C.) it was 4110 µg/mL (≈ 8.43 mM); in data set [3] (25 °C, solvent n-BuOH, read-out: Solubility at 25° C.) it was 820 µg/mL (≈ 1.68 mM); in data set [3] (50 °C, solvent 2-Methoxyethanol, read-out: Solubility at 50° C.), 20500 µg/mL (≈ 42 mM). The solubility at 24 h in data set [3] (50 °C, solvent Acetone, read-out: Solubility at 50° C.) is 6670 µg/mL (≈ 13.7 mM); in data set [3] (50 °C, solvent DCM/MeOH (9/1), read-out: Solubility at 50° C.) it was above 50000 µg/mL; in data set [3] (50 °C, solvent DMF, read-out: Solubility at 50° C.) it was above 50000 µg/mL; in data set [3] (50 °C, solvent DMSO, read-out: Solubility at 50° C.) it was above 50000 µg/mL; in data set [3] (50 °C, solvent EtOH, read-out: Solubility at 50° C.) it was 2730 µg/mL (≈ 5.6 mM); in data set [3] (50 °C, solvent Ethyl formate, read-out: Solubility at 50° C.), 15300 µg/mL (≈ 31.4 mM). Moreover, the solubility at 24 h in data set [3] (50 °C, solvent IPA/water (4/1), read-out: Solubility at 50° C.) was determined as 8770 µg/mL (≈ 18 mM); in data set [3] (50 °C, solvent IPA, read-out: Solubility at 50° C.) it was 1370 µg/mL (≈ 2.81 mM); in data set [3] (50 °C, solvent IPAc, read-out: Solubility at 50° C.) it was 1330 µg/mL (≈ 2.73 mM); in data set [3] (50 °C, solvent Isobutyl acetate, read-out: Solubility at 50° C.) it was 580 µg/mL (≈ 1.19 mM); in data set [3] (50 °C, solvent MEK, read-out: Solubility at 50° C.), 3220 µg/mL (≈ 6.61 mM); in data set [3] (50 °C, solvent MIBK, read-out: Solubility at 50° C.), 1120 µg/mL (≈ 2.3 mM). Further, the solubility at 24 h in data set [3] (50 °C, solvent MTBE, read-out: Solubility at 50° C.) was 190 µg/mL (≈ 0.39 mM); in data set [3] (50 °C, solvent Toluene, read-out: Solubility at 50° C.), 820 µg/mL (≈ 1.68 mM); in data set [3] (50 °C, solvent n-BuOH, read-out: Solubility at 50° C.), 1650 µg/mL (≈ 3.38 mM). The solubility in data set [1] (DMSO, 25° C., slurry obtained after stirring the clear solution of 60 mg Form I in 1 mL DMSO, read-out: solubility of the saturated solution) is 6130 µg/mL (≈ 12.6 mM). Besides, the “solubility (in words)” value is “sparingly soluble” in data set [3] (MTBE, toluene, IPAc, methanol, and IPA); “almost insoluble” in data set [3] (water, heptane and hexane).
Turning to `CCN1C(=O)N(c2c(F)c(OC)cc(OC)c2F)Cc2cnc3[nH]c(CN4CCOCC4)cc3c21` [Form III], the solubility at 24 h came to 5690 µg/mL (≈ 11.7 mM) in data set [1] (50 °C, solvent 1,4-Dioxane, stirred 24 h, HPLC, read-out: Solubility at 50° C.) and 2230 µg/mL (≈ 4.57 mM) in data set [3] (25 °C, solvent 1,4-Dioxane, read-out: Solubility at 25° C.).
Consider `CCN1C(=O)N(c2c(F)c(OC)cc(OC)c2F)Cc2cnc3[nH]c(CN4CCOCC4)cc3c21` [Form VI], for which, in data set [3] (25 °C, solvent Methanol, read-out: Solubility at 25° C.), the solubility at 24 h stood at 640 µg/mL (≈ 1.31 mM).
Regarding `CCN1C(=O)N(c2c(F)c(OC)cc(OC)c2F)Cc2cnc3[nH]c(CN4CCOCC4)cc3c21` [Form XI], the solubility at 24 h in data set [1] (25 °C, solvent Ethyl formate, stirred 24 h, HPLC, read-out: Solubility at 25° C.) is 4160 µg/mL (≈ 8.53 mM).
On to `CCN1C(=O)N(c2c(F)c(OC)cc(OC)c2F)Cc2cnc3[nH]c(CN4CCOCC4)cc3c21` [Form XIII], for which, in data set [3] (50 °C, solvent THF, read-out: Solubility at 50° C.), the solubility at 24 h is 10000 µg/mL (≈ 20.6 mM).
`CCN1C(=O)N(c2c(F)c(OC)cc(OC)c2F)Cc2cnc3[nH]c(CN4CCOCC4)cc3c21` [Form X]: the solubility at 24 h in data set [3] (25 °C, solvent EtOAc, read-out: Solubility at 25° C.) worked out at 700 µg/mL (≈ 1.44 mM).

These data come from patent publication US12552792B2, “Solid forms of an FGFR inhibitor and processes for preparing the same” (Incyte Corporation, priority 2018, dated 2026).
